Experimental data from patent US9023789B2, “Amylin analogs and pharmaceutical compositions thereof” (Novo Nordisk A/S, priority 2012, dated 2015).
Where two headings read alike, the source gives them in different places.

Columns and labels:
rat calcitonin receptor = molecular target: T1, rat calcitonin receptor (Rattus norvegicus, UniProt P32214); assay: ASSAY (VIII) binding to the rat calcitonin receptor; settings: Table 7, read-out: rCTR bind IC50
T1 construct: expressed in transfected cells; host or cells: BHK tk'ts 13 (transient, FuGENE 6), membranes
T1 sequence (P32214 25-479 isoform P32214-2 limits assumed): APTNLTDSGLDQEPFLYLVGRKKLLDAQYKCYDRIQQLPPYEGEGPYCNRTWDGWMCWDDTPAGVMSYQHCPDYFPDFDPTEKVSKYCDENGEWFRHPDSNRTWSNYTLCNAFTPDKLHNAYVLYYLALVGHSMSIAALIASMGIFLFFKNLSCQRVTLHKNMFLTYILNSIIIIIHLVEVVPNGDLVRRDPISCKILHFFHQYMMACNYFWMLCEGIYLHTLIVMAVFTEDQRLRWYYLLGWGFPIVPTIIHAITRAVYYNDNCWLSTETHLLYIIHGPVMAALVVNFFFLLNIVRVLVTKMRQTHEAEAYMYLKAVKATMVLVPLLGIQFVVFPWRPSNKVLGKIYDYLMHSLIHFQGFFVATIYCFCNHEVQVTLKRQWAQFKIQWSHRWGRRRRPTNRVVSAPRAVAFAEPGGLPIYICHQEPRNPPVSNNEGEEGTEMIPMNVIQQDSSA
Procedure: Assay (VIII)—Determination of Binding to the Rat Calcitonin Receptor
The BHK tk′ts 13 cells were transiently transfected with rat calcitonin receptor using FuGENE® 6 (Roche), according to the manufacturer's recommendations. Cells were grown in DMEM with 10% FBS and 1% Pen/Strep. Approximately 48 hours after transfection, the cells were harvested and membranes were prepared.

[1] = ASSAY (IV) determination of solubility; format: physicochemical
Procedure: Assay (IV)—Determination of Solubility
The polypeptide was dissolved in water at −500 nmol/ml and mixed 1:1 with a series of buffers (100 mM glycylglycine pH 3.0, 100 mM glycylglycine pH 4.0, 100 mM glycylglycine pH 5.0, 100 mM bistrispropane pH 6.0, 100 mM bistrispropane pH 6.5, 100 mM bistrispropane pH 7.0, 100 mM bistrispropane pH 7.5, 100 mM bistrispropane pH 8.0). After 18 hours at room temperature the samples were centrifuged and the polypeptide concentration determined by UPLC.

Sprague Dawley (SD) rats = assay: ASSAY (I) efficacy testing on appetite (food intake) using an ad libitum fed rat model; format: in vivo; settings: rat, 30 nmol/kg
Description: Sprague Dawley (SD) rats from Taconic Europe, Denmark are used for the experiments. The rats have a body weight 200-250 g at the start of experiment. The rats arrive at least 10-14 days before start of experiment to allow acclimatization to experimental settings. During this period the animals are handled at least 2 times. After arrival rats are housed individually for one week in a reversed light/dark phase (meaning that lights are off during daytime and on during nighttime) for two weeks. Since rats are normally active and eat their major part of their daily food intake during the dark period, rats are dosed in the morning right before lights are turned off. This set-up results in the lowest data variation and highst test sensitivity. The experiment is conducted in the rats' home cages and rats have free access to food and water throughout the acclimatization period and the experiment period. Each dose of derivative is tested in a group of 5-8 rats. A vehicle group of 6-8 rats is included in each set of testing. Rats are dosed once according to body weight with a 0.01-3 mg/kg solution administered intraperitoneally (ip), orally (po) or subcutaneously (sc). The time of dosing is recorded for each group. After dosing, the rats are returned to their home cages, where they then have access to food and water. The food consumption is recorded individually continuously by online registration or manually every hour for 7 hours, and then after 24 h and sometimes 48 h. At the end of the experimental session, the animals are euthanized.
The individual data are recorded in Microsoft excel sheets. Outliers are excluded after applying the Grubbs statistical evaluation test for outliers, and the result is presented graphically using the GraphPad Prism program.

[2] = molecular target: T2, human amylin 3(a) receptor (human calcitonin receptor + RAMP-3) in BHK570 cells (Homo sapiens, UniProt O60896+P30988); assay: ASSAY (II)a functional assay, human amylin receptor (CRE luciferase); format: cell-based
T2 construct: expressed in transfected cells
Description: 1. Luciferase Assay Outline
Activation of calcitonin and amylin (coexpression of calcitonin receptor and receptor activity modifying proteins (RAMP)) receptors lead to increased intracellular concentrations of cAMP. Consequently, transcription is activated by promoters containing multiple copies of the cAMP response element (CRE). It is thus possible to measure amylin activity by the use of a CRE luciferase reporter gene introduced into BHK cells also expressing calcitonin or amylin receptors.
2. Construction of Calcitonin (a)- and Amylin 3(a)-Receptor/CRE-Luc Cell Line.
The cell line was further transfected with RAMP-3, using standard methods. This turns the calcitonin receptor into an amylin 3(a) receptor. Methotrexate, Neomycin, and Hygromycin are selection markers for luciferase, the calcitonin receptor, and RAMP-3, respectively.
To perform activity assays, BHK calcitonin (a) receptor- or amylin 3(a)-receptor/CRE-luc cells were seeded in white 96 well culture plates at a density of about 20.000 cells/well. […] After incubation overnight at 37° C. and 5% CO2, the growth medium was replaced by 50 μl/well assay medium (DMEM (without phenol red), Glutamax™, 10% FBS, and 10 mM Hepes, pH 7.4). Further, 50 μl/well of standard or sample in assay buffer were added. After 3 hours incubation at 37° C. and 5% CO2, the assay medium with standard or sample were removed and replaced by 100 μl/well PBS. Further, 100 μl/well LucLite™ was added. The plates were sealed and incubated at room temperature for 30 minutes. Finally, luminescence was measured on a TopCounter (Packard) in SPC (single photon counting) mode.

[3] = molecular target: T3, rat amylin receptor (rat calcitonin receptor + rat RAMP 3) (Rattus norvegicus, UniProt P32214+Q9JJ73); assay: ASSAY (VI) binding to the rat amylin receptor
T3 construct: expressed in transfected cells; host or cells: BHK tk'ts 13 (transient, FuGENE 6), membranes
T3 sequence (P32214 25-479 isoform P32214-2 limits assumed): T1 sequence (P32214 25-479 isoform P32214-2 limits assumed)
T3 sequence (Q9JJ73 23-147 partner): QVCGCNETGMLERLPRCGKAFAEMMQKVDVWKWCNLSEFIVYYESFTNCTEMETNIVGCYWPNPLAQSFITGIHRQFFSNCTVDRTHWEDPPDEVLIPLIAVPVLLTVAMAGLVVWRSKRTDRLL
Procedure: Assay (VI)—Determination of the Binding to the Rat Amylin Receptor […] The BHK tk′ts 13 cells were transiently transfected with rat calcitonin receptor using FuGENE® 6 (Roche), according to the manufacturer's recommendations. […] Approximately 48 hours after transfection, the cells were harvested and membranes were prepared.

[4] = molecular target: T4, human amylin receptor (membranes from Amylin 3(a)/CRE-luc cells) (Homo sapiens, UniProt O60896+P30988); assay: ASSAY (V) binding to the human amylin receptor (SPA, 125I-rat amylin);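 also: competition binding of cell membranes (35 ng/µL) mixed with SPA beads in 384-well plates at 40 µL total volume, read by scintillation counting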
T4 construct: expressed in transfected cells
T4 sequence (P30988 25-474): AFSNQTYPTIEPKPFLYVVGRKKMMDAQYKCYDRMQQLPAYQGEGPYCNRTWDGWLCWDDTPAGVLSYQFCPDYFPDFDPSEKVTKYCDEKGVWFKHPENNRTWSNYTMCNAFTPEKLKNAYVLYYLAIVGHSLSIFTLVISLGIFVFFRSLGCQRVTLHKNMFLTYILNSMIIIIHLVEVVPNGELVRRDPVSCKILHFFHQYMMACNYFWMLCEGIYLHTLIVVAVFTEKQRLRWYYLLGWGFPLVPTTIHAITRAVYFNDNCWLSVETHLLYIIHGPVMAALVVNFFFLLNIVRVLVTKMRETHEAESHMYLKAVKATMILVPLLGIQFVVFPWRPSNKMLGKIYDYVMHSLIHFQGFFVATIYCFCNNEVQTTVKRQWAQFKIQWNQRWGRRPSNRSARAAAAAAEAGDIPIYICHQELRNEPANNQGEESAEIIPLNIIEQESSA
T4 sequence (O60896 24-148 partner): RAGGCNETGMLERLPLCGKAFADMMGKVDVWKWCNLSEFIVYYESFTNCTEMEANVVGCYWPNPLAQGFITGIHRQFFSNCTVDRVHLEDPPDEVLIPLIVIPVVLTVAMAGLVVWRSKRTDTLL

CC[C@H](C)[C@H](NC(=O)[C@H](C)NC(=O)CNC(=O)[C@H](Cc1ccccc1)NC(=O)[C@H](CC(N)=O)NC(=O)[C@@H]1CCCN1C(=O)[C@H](CO)NC(=O)[C@H](CO)NC(=O)[C@H](Cc1c[nH]cn1)NC(=O)[C@H](CCCNC(=N)N)NC(=O)[C@H](CC(C)C)NC(=O)[C@H](Cc1ccccc1)NC(=O)[C@H](CC(=O)O)NC(=O)[C@H](C)NC(=O)[C@H](CC(C)C)NC(=O)[C@H](CCCNC(=N)N)NC(=O)[C@H](CCC(N)=O)NC(=O)[C@@H](NC(=O)[C@H](C)NC(=O)[C@@H]1CSSC[C@H](NC(=O)[C@@H](N)CCCCN)C(=O)N[C@@H](CC(N)=O)C(=O)N[C@@H]([C@@H](C)O)C(=O)N[C@@H](C)C(=O)N[C@@H]([C@@H](C)O)C(=O)N1)[C@@H](C)O)C(=O)N1CCC[C@H]1C(=O)N[C@@H](CO)C(=O)N[C@@H](CO)C(=O)N[C@H](C(=O)N[C@@H](CC(N)=O)C(=O)N[C@H](C(=O)NCC(=O)N[C@@H](CO)C(=O)N[C@@H](CCCNC(=N)N)C(=O)N[C@H](C(=O)N[C@@H](Cc1ccc(O)cc1)C(N)=O)[C@@H](C)O)C(C)C)[C@@H](C)O [Example 132]
IC50 (rat calcitonin receptor): 30.9 nM | solubility at 18 h ([1]; bistrispropane buffer, pH 6.5, read-out: Solubility pH 6.5 Concentration): ≥ 200 µM | solubility at 18 h ([1]; bistrispropane buffer, pH 7.5, read-out: Solubility pH 7.5 Concentration): ≥ 200 µM | solubility at 18 h ([1]; bistrispropane buffer, pH 6.0, read-out: Solubility pH 6.0 Concentration): ≥ 200 µM | solubility at 18 h ([1]; bistrispropane buffer, pH 7.0, read-out: Solubility pH 7.0 Concentration): ≥ 200 µM | solubility at 18 h ([1]; bistrispropane buffer, pH 8.0, read-out: Solubility pH 8.0 Concentration): ≥ 200 µM | solubility at 18 h ([1]; glycylglycine buffer, pH 3.0, read-out: Solubility pH 3.0 Concentration): ≥ 200 µM | solubility at 18 h ([1]; glycylglycine buffer, pH 4.0, read-out: Solubility pH 4.0 Concentration): ≥ 200 µM | solubility at 18 h ([1]; glycylglycine buffer, pH 5.0, read-out: Solubility pH 5.0 Concentration): ≥ 200 µM

CC[C@H](C)[C@H](NC(=O)[C@H](C)NC(=O)CNC(=O)[C@H](Cc1ccccc1)NC(=O)[C@H](CC(N)=O)NC(=O)[C@@H]1CCCN1C(=O)[C@H](CO)NC(=O)[C@H](CO)NC(=O)[C@H](Cc1c[nH]cn1)NC(=O)[C@H](CCCNC(=N)N)NC(=O)[C@H](CC(C)C)NC(=O)[C@H](Cc1ccccc1)NC(=O)[C@@H](CC(=O)O)NC(=O)[C@H](C)NC(=O)[C@H](CC(C)C)NC(=O)[C@H](CCCNC(=N)N)NC(=O)[C@H](CCC(N)=O)NC(=O)[C@@H](NC(=O)[C@H](C)NC(=O)[C@@H]1CSSC[C@H](NC(=O)[C@@H](N)CCCCNC(=O)CC[C@H](NC(=O)CC[C@H](NC(=O)CCCCCCCCCCCCCCCCCCC(=O)O)C(=O)O)C(=O)O)C(=O)N[C@@H](CC(N)=O)C(=O)N[C@@H]([C@@H](C)O)C(=O)N[C@@H](C)C(=O)N[C@@H]([C@@H](C)O)C(=O)N1)[C@@H](C)O)C(=O)N1CCC[C@H]1C(=O)N[C@@H](CO)C(=O)N[C@@H](CO)C(=O)N[C@H](C(=O)N[C@@H](CC(N)=O)C(=O)N[C@H](C(=O)NCC(=O)N[C@@H](CO)C(=O)N[C@@H](CCCNC(=N)N)C(=O)N[C@H](C(=O)N[C@@H](Cc1ccc(O)cc1)C(N)=O)[C@@H](C)O)C(C)C)[C@@H](C)O [Example 131]
IC50 (rat calcitonin receptor): 536 nM | Food intake reduction 0-24 h 30 nmol/kg (%) (Sprague Dawley (SD) rats; 0-24 h): 17% | Food intake reduction 24-48 h 30 nmol/kg (%) (Sprague Dawley (SD) rats; 24-48 h): 14% | Ratio hCT/hAmylin funct. ([2]; hCTR funct. EC50 divided by hAmylin-R funct. EC50): 261.1 | Ratio hCT/hAmylin funct. ([2]; hCTR funct. EC50 over hAmylin-R funct. EC50): 261.1 | Ratio hCT/hAmylin funct. ([2]; human functional selectivity: hCTR funct. EC50 / hAmylin-R funct. EC50): 261.1 | IC50 ([3]; Table 7, binding to rat amylin receptor, read-out: rAmylin-R bind IC50): 1.69 nM | Ratio rCT/rAmylin binding ([3]; Table 7, rat binding selectivity, rCTR IC50 / rAmylin-R IC50): 316.7 | Ratio rCT/rAmylin binding ([3]; Table 7a (preferred compounds), rat binding selectivity, rCTR IC50 / rAmylin-R IC50): 316.7 | Ratio rCT/rAmylin binding ([3]; ratio of rCTR bind IC50 to rAmylin-R bind IC50): 316.7 | Ratio hCT/hAmylin binding ([4]; Table 5, selectivity, hCTR bind IC50 / hAmylin-R bind IC50): 306.6 | Ratio hCT/hAmylin binding ([4]; Table 5a, selectivity, hCTR bind IC50 / hAmylin-R bind IC50): 306.6 | Ratio hCT/hAmylin binding ([4]; Table 5b, selectivity, hCTR bind IC50 / hAmylin-R bind IC50): 306.6 | Ratio hCT/hAmylin binding ([4]; Table 5c, selectivity, hCTR bind IC50 / hAmylin-R bind IC50): 306.6 | Ratio hCT/hAmylin binding ([4]; Table 7, human binding selectivity, included for comparison): 306.6 | Ratio hCT/hAmylin binding ([4]; Table 7a (preferred compounds), human binding selectivity, included for comparison): 306.6 | Ratio hCT/hAmylin binding ([4]; ratio of human calcitonin receptor binding IC50 to human amylin receptor binding IC50): 306.6
